Results taken from patent US20130202733A1, “ISOMALTULOSE FOR USE IN ENHANCING MENTAL PERFORMANCE” (SUEDZUCKER AKTIENGESELLSCHAFT MANNHEIM/OCHSENFURT, priority 2010, published 2013).
“Also recorded” adds a separate entry of the source.

Experiments:
healthy school children [1] = test: Episodic memory test (Recall of Objects, British Ability Scales) after isomaltulose or glucose sweetened meal; format: in vivo, human
Description: (§1) Seventy-five healthy school children consumed in crossover design two meals designed to differ in their glycemic load (GL; Amount of carbohydrate×Glycemic Index, GI, of food items; GI of isomaltulose=32, GI of glucose=100) while being similar in macro-nutrient content. The cognitive test block takes 45 minutes and was once assessed in the early postprandial phase and once in the late post-prandial phase (>150 minutes) after meal ingestion. Every child participated in four blocks of testing (FIG. 2). • Early test block after meal A • Late test block after meal A • Early test block after meal B • Late test block after meal B
(§2) On each cognitive test block parallel versions of the cognitive tests were administered.
(§3) Both meals offered a similar intake of energy (1385 KJ) and macro-nutrients (84.4% carbohydrates, 10.6% protein and 5.0% fat) while differing in glycemic load (GL; Amount of carbohydrate×Glycemic Index of food items), that is whether glucose was released slowly or i quickly into the blood stream. The meals were composed as followed (% of total energy): • High GL meal: Cornflakes+milk (35.3%), yoghurt+fruit preparation (14.2%), glucose (50.5%). • Low GL meal: Cornflakes+milk (35.3%), yoghurt+fruit preparation (14.2%), isomaltulose (50.5%).
The approach was based on the Recall of Objects test of the British Ability Scales (Elliott, British Ability Scales, 1996, National foundation of Educational Research) and children had to recall up to 60 objects.

healthy school children [2] = test: Attention test (paradigm of Shakow, signal detection, error rate) after isomaltulose or glucose sweetened meal; format: in vivo, human
Description: as §1, §2, §3
The paradigm of Shakow was used to assess attention with error rate as outcome (Shakow, Arch general Psychiat, 1962, 6, 1-17). […]

[3] = glucose standard = 100; cited from earlier work
[4] = after ingestion of 50 g; cited from earlier work
subjects = details: at 150 minutes following ingestion; cited from earlier work
healthy adults = details: milk-based drink; cited from earlier work

Row | Compound | episodic memory, isomaltulose meal versus glucose meal (healthy school children [1]; early postprandial phase (early cognitive test block)) | episodic memory, isomaltulose meal versus glucose meal (healthy school children [1]; late postprandial phase, >150 minutes after meal consumption) | episodic memory, late postprandial phase compared to early postprandial phase (healthy school children [1]; within the same meal) | attention error rate, isomaltulose meal versus glucose meal (healthy school children [2]; early postprandial phase) | attention performance (error rate), isomaltulose meal versus glucose meal (healthy school children [2]; late postprandial phase, >150 minutes after meal ingestion) | glycemic index (GI) [3] | blood glucose or glycemic response curve versus sucrose [4] | time after ingestion at which blood glucose approximates the initial levels [4] | cognitive performance tests versus sucrose-containing drinks (subjects) | effect on cognitive performance (healthy adults)
1 | OC[C@H]1O[C@H](OC[C@H]2OC(O)(CO)[C@@H](O)[C@@H]2O)[C@H](O)[C@@H](O)[C@@H]1O (some centres unmarked) [isomaltulose] | did not differ | significantly better episodic memories | not significantly different | nearly the same attention error rate; also recorded: nearly the same error rates | performed better by tendency; also recorded: trend for better attention performance | 32 | much lower | about 2.5 hours | performed significantly better | does not affect cognitive performance
2 | OC[C@H]1O[C@@](CO)(O[C@H]2O[C@H](CO)[C@@H](O)[C@H](O)[C@H]2O)[C@@H](O)[C@@H]1O [sucrose, reference compound] | – | – | – | – | – | 65 | – | – | – | –
